The values that follow are results of earlier work, collected in patent publication US20230172202A1, “INSECT AND NON-INSECT ARTHROPOD PEST REPELLENT COMPOSITIONS AND METHODS” (Livful Inc., priority 2021, published 2023).

Structures are written as SMILES.

The subject of one series is mosquitos. The following applies: 25% active ingredient (IR3535 in ethanol); human subjects, field.
For series [1] the following is noted: according to the manufacturer (Merck KGaA).

As to `CCN(CC)C(=O)c1cccc(C)c1` [DEET, N,N-diethyl-m-toluamide], the “mean complete protection time (mean CPT)” value in the series with mosquitos is 5.6 h.

For the molecule `CCCCN(CCC(=O)OCC)C(C)=O` [IR3535®, ethyl butylacetylaminopropionate], the “mean complete protection time (mean CPT)” value in the series on mosquitos is 3.0 h. Also, the “ideal pH for IR3535” value in series [1] was 6.0-6.5.
